Data: patent publication US11623919B2, “Heterocyclic P2X7 antagonists” (AXXAM S.P.A., priority 2017, dated 2023)

Assays:
Assay in all cases: Screen Quest Fluo-8 No Wash Calcium Assay (Bz-ATP evoked Ca2+ influx, FLIPR)
Format in all cases: cell-based
P2X7 receptor [1] = molecular target: T1, P2X7 receptor (Homo sapiens, UniProt Q99572); parameters: hP2X7 (IC50; nM); other: hP2X7; HEK-293 cells stably transfected with P2X7 receptor, Bz-ATP at EC80, Fluo-8 NW; potency; settings: hP2X7; HEK-293 cells stably transfected with P2X7 receptor, Bz-ATP at EC80, Fluo-8 NW; potency ranges A-D
T1 sequence (Q99572 1-595): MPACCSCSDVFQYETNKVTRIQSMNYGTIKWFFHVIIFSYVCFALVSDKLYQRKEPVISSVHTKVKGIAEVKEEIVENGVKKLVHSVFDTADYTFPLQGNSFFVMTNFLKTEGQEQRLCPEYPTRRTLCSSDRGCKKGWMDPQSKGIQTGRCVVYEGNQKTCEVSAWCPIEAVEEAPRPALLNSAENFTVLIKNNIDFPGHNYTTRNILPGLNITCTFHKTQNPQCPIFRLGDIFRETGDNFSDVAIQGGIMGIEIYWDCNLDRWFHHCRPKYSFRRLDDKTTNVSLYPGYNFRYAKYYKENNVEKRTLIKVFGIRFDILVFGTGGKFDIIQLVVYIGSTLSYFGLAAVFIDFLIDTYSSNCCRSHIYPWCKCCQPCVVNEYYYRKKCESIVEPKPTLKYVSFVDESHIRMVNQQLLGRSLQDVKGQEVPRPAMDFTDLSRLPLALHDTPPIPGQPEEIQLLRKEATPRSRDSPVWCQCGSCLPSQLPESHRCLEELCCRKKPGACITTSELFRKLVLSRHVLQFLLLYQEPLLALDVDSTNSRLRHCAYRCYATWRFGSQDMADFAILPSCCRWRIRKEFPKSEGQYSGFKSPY
Protocol: (§1) Extracellular binding of Bz-ATP to P2X7 receptor opens the channel and allows Ca2+ influx into the cells. […] Once inside the cell, the lipophilic blocking groups of Fluo-8 are cleaved by non-specific cell esterases, resulting in a negatively-charged fluorescent dye that stays inside cells. Its fluorescence increases upon binding to calcium.
(§2) HEK-293 cells stably transfected with P2X7 receptor were seeded overnight in growth medium at 10,000 to 20,000 cell/well in 384-well plate. 24 hours later, the medium was removed and the cells were pre-loaded at RT for 1 hour with 20 μL/w of Fluo-8 NW. Then 10 μL/w of tests compounds and reference antagonist A438079 at 3×-concentration were injected with the […] and the kinetic response over a period of five minutes was monitored. A second injection of 15 μL/w of 3× reference activator (Bz-ATP at EC80) was performed with the […] and the signal of the emitted fluorescence was recorded for additional three minutes. All the experiment was carried out in a Low Divalent Cation Assay Buffer (0.3 mM Ca^2+ and 0 mM Mg^2+). The effect of the test compounds was measured as percent inhibition vs the reference antagonist and IC50 values were calculated accordingly.

P2X7 receptor [2] = molecular target: T2, P2X7 receptor (Rattus norvegicus, UniProt Q64663); settings: rP2X7; HEK-293 cells stably transfected with P2X7 receptor, Bz-ATP at EC80, Fluo-8 NW; potency ranges A-D
T2 construct: rP2X7 (IC50; nM); other: rP2X7; HEK-293 cells stably transfected with P2X7 receptor, Bz-ATP at EC80, Fluo-8 NW; potency
T2 sequence (Q64663 1-595): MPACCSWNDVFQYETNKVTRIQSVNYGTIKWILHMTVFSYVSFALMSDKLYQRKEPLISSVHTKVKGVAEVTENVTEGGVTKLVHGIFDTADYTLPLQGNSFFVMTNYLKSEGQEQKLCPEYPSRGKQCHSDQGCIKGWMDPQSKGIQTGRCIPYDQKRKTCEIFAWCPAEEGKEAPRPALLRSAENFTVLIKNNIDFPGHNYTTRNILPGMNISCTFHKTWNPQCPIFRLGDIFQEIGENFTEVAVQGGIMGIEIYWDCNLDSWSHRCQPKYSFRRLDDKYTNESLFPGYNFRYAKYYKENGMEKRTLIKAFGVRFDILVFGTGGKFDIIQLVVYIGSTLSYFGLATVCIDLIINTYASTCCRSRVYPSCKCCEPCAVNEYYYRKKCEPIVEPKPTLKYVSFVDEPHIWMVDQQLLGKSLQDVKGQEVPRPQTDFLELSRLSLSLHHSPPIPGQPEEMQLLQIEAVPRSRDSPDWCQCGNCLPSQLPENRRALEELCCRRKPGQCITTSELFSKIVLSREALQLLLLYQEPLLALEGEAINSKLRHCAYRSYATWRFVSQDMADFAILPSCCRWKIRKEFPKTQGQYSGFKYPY
Protocol: as §1, §2

P2X7 receptor [3] = molecular target: T3, P2X7 receptor (Mus musculus, UniProt Q9Z1M0); settings: mP2X7; HEK-293 cells stably transfected with P2X7 receptor, Bz-ATP at EC80, Fluo-8 NW; potency ranges A-D
T3 construct: mP2X7 (IC50; nM); other: mP2X7; HEK-293 cells stably transfected with P2X7 receptor, Bz-ATP at EC80, Fluo-8 NW; potency
T3 sequence (Q9Z1M0 1-595): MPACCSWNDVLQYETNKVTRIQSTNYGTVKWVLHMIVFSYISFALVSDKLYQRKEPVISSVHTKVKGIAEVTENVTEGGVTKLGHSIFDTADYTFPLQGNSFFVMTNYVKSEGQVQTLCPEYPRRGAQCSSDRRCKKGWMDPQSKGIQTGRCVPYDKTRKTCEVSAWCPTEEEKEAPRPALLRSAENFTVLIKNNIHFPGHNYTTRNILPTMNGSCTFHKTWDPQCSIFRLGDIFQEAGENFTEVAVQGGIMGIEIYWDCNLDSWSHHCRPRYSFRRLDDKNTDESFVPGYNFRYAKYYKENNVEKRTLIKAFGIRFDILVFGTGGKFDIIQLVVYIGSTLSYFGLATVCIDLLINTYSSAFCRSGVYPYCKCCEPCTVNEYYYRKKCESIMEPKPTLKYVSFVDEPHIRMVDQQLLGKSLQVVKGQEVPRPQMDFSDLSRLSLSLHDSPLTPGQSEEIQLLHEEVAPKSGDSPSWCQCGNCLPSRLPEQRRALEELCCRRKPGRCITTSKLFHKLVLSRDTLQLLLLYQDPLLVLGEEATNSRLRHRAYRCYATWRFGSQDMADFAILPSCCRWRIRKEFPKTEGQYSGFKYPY
Protocol: as §1, §2

Row | IC50 (P2X7 receptor [1]) | IC50 (P2X7 receptor [2]) | IC50 (P2X7 receptor [3]) | Compound
1 | 200 to 1000 nM | 200 to 1000 nM | 1000 to 10000 nM | O=c1onc(Cc2ccc(F)cc2)n1CC1CCC(F)(F)CC1 [Example 152, 4-[(4,4-difluorocyclohexyl)methyl]-3-[(4-fluorophenyl)methyl]-4,5-dihydro-1,2,4-oxadiazol-5-one]
2 | 1000 to 10000 nM | 200 to 1000 nM | 200 to 1000 nM | O=c1onc(Cc2ccc(F)cc2)n1CC1CCCCC1 [Example 12, 4-(cyclohexylmethyl)-3-[(4-fluorophenyl)methyl]-4,5-dihydro-1,2,4-oxadiazol-5-one]
3 | 1000 to 10000 nM | 1000 to 10000 nM | > 10000 nM | O=c1onc(Cc2ccc(F)cc2F)n1Cc1ccc(F)cc1 [Example 80, 3-[(2,4-difluorophenyl)methyl]-4-[(4-fluorophenyl)methyl]-4,5-dihydro-1,2,4-oxadiazol-5-one]
4 | 1000 to 10000 nM | 1000 to 10000 nM | 1000 to 10000 nM | CC(c1ccc(F)cc1)n1c(CC2CCC(F)(F)CC2)noc1=O (stereo not drawn) [Example 164, 3-[(4,4-difluorocyclohexyl)methyl]-4-[1-(4-fluorophenyl)ethyl]-4,5-dihydro-1,2,4-oxadiazol-5-one]
5 | 1000 to 10000 nM | 200 to 1000 nM | 200 to 1000 nM | O=c1onc(CC2CCC(F)(F)CC2)n1Cc1ccc(C(F)(F)F)o1 [Example 168, 3-[(4,4-difluorocyclohexyl)methyl]-4-{[5-(trifluoromethyl)furan-2-yl]methyl}-4,5-dihydro-1,2,4-oxadiazol-5-one]
6 | 1000 to 10000 nM | 1000 to 10000 nM | > 10000 nM | Cc1noc(C)c1Cc1noc(=O)n1Cc1ccc(F)cc1 [Example 208, 3-[(dimethyl-1,2-oxazol-4-yl)methyl]-4-[(4-fluorophenyl)methyl]-4,5-dihydro-1,2,4-oxadiazol-5-one]
7 | 200 to 1000 nM | 1000 to 10000 nM | 1000 to 10000 nM | O=c1onc(Cc2c(F)cccc2Cl)n1Cc1ccccc1 [Example 21, 4-benzyl-3-[(2-chloro-6-fluorophenyl)methyl]-4,5-dihydro-1,2,4-oxadiazol-5-one]
8 | > 10000 nM | 1000 to 10000 nM | > 10000 nM | Cc1cc(Cn2c(CC3CCC(F)(F)CC3)noc2=O)no1 [Example 169, 3-[(4,4-difluorocyclohexyl)methyl]-4-[(5-methyl-1,2-oxazol-3-yl)methyl]-4,5-dihydro-1,2,4-oxadiazol-5-one]
9 | 1000 to 10000 nM | > 10000 nM | > 10000 nM | Cc1ncsc1Cn1c(Cc2ccc(F)cc2)noc1=O [Example 8, 3-[(4-fluorophenyl)methyl]-4-[(4-methyl-1,3-thiazol-5-yl)methyl]-4,5-dihydro-1,2,4-oxadiazol-5-one]
10 | > 10000 nM | > 10000 nM | > 10000 nM | O=c1onc(Cc2ccccn2)n1Cc1ccc(F)cc1 [Example 104, 4-[(4-fluorophenyl)methyl]-3-(pyridin-2-ylmethyl)-4,5-dihydro-1,2,4-oxadiazol-5-one]
11 | 200 to 1000 nM | 200 to 1000 nM | 1000 to 10000 nM | COc1cccc(Cc2noc(=O)n2CC2CCC(F)(F)CC2)c1 [Example 160, 4-[(4,4-difluorocyclohexyl)methyl]-3-[(3-methoxyphenyl)methyl]-4,5-dihydro-1,2,4-oxadiazol-5-one]
12 | 1000 to 10000 nM | > 10000 nM | > 10000 nM | O=c1onc(Cc2ccc(F)cc2)n1Cc1ccc(F)cc1 [Example 54, bis[(4-fluorophenyl)methyl]-4,5-dihydro-1,2,4-oxadiazol-5-one]
13 | > 10000 nM | > 10000 nM | > 10000 nM | Cn1c(Cc2c(F)cccc2Cl)noc1=O [Example 174, 3-[(2-chloro-6-fluorophenyl)methyl]-4-methyl-4,5-dihydro-1,2,4-oxadiazol-5-one]
14 | 1000 to 10000 nM | 1000 to 10000 nM | > 10000 nM | O=c1onc(Cc2c(F)cccc2Cl)n1CC1CCCOC1 (stereo not drawn) [Example 89, 3-[(2-chloro-6-fluorophenyl)methyl]-4-(oxan-3-ylmethyl)-4,5-dihydro-1,2,4-oxadiazol-5-one]
15 | > 10000 nM | > 10000 nM | > 10000 nM | O=c1onc(CN2CCC(F)(F)CC2)n1CC1CCC(F)(F)CC1 [Example 223, 4-[(4,4-difluorocyclohexyl)methyl]-3-[(4,4-difluoropiperidin-1-yl)methyl]-4,5-dihydro-1,2,4-oxadiazol-5-one]
16 | 200 to 1000 nM | > 10000 nM | > 10000 nM | O=c1onc(C(O)c2cccc(C(F)(F)F)c2Cl)n1Cc1c(F)cccc1Cl (stereo not drawn) [Example 135, 3-{[2-chloro-3-(trifluoromethyl)phenyl](hydroxy)methyl}-4-[(2-chloro-6-fluorophenyl)methyl]-4,5-dihydro-1,2,4-oxadiazol-5-one]
17 | 200 to 1000 nM | 1000 to 10000 nM | > 10000 nM | O=c1onc(Cc2ccc(F)cc2)n1Cc1ccc(Cl)cc1Cl [Example 9, 4-[(2,4-dichlorophenyl)methyl]-3-[(4-fluorophenyl)methyl]-4,5-dihydro-1,2,4-oxadiazol-5-one]
18 | 1000 to 10000 nM | 200 to 1000 nM | 1000 to 10000 nM | O=c1onc(Cc2c(F)cccc2Cl)n1CC1CCOCC1 [Example 93, 3-[(2-chloro-6-fluorophenyl)methyl]-4-(oxan-4-ylmethyl)-4,5-dihydro-1,2,4-oxadiazol-5-one]
19 | 1000 to 10000 nM | 200 to 1000 nM | > 10000 nM | O=c1onc(CC2CCC(F)(F)CC2)n1Cc1nccs1 [Example 191, 3-[(4,4-difluorocyclohexyl)methyl]-4-(1,3-thiazol-2-ylmethyl)-4,5-dihydro-1,2,4-oxadiazol-5-one]
20 | < 200 nM | < 200 nM | < 200 nM | O=c1snc(CC2CCC(F)(F)CC2)n1Cc1c(F)cccc1Cl [Example 203, 4-[(2-chloro-6-fluorophenyl)methyl]-3-[(4,4-difluorocyclohexyl)methyl]-4,5-dihydro-1,2,4-thiadiazol-5-one]
